“Also recorded” adds a separate entry of the source. Read-outs that look alike come from different tables or passages of the source. *1 amine or outer side, *2 acyl side, *3 side chain or, on linkers, in order; H or OH if unused. Where a SMILES comes first, the peptide text is derived from it. Bridges are numbered along the chain shown (N, C = ends). [ ]: non-standard residue; d: D form. The star is where a group is joined. Leu(3R-OH,Nα-propionyl) = CCC(=O)N[C@H](C(=O)*)[C@H](O)C(C)C; X1 = CC(C)[C@@H](O[*:3])[C@H](N[*:1])C(=O)[*:2]; NMeT = CN[C@H](C(=O)O)[C@@H](C)O; dPhLac = O=C(O)[C@H](O)Cc1ccccc1; NMeA = CN[C@@H](C)C(=O)O; NMeDha = C=C(NC)C(=O)O
Legend:
P2Y1R [1] = target: T1, P2Y1R (Homo sapiens, UniProt P47900); assay: Intracellular calcium mobilization, HEK293 cells, native P2Y1R (MRS2365); assay type: cell-based
T1 sequence (P47900 whole entry): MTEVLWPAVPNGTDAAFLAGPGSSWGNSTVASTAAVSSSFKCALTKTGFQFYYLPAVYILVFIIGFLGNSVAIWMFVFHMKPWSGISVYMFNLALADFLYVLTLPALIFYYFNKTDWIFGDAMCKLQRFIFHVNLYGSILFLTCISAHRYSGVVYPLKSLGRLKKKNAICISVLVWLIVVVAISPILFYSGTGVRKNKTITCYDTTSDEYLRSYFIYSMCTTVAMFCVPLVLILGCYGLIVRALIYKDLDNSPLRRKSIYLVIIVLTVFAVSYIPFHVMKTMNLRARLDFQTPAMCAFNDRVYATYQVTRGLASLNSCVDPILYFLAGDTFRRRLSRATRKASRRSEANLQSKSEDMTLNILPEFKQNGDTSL

A1AR [2] = target: T2, A1AR (Homo sapiens, UniProt P30542); assay: Intracellular calcium mobilization, HEK293 cells expressing recombinant A1AR (CCPA); assay type: cell-based
T2 construct: expressed in transfected cells
T2 sequence (P30542 1-326): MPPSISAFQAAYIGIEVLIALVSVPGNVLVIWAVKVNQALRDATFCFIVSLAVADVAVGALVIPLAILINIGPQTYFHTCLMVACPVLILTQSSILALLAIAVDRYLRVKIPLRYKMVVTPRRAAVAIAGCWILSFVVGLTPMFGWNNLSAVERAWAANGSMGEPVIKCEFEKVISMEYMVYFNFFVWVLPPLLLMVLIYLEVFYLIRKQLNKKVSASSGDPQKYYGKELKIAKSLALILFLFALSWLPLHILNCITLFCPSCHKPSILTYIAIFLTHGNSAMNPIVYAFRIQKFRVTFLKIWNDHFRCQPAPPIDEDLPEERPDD

A1AR [3] = target: T2, A1AR; assay: cAMP accumulation, HEK293 cells, A1AR-mediated inhibition of forskolin-stimulated cAMP (CCPA); assay type: cell-based
Method: (§1) HEK293, T24 bladder cancer and MDA-MB-231 breast cell lines were cultured in DMEM medium containing 10% fetal bovine serum, 100 units/ml penicillin, 100 μg/ml streptomycin, and 2 μmol/ml glutamine. For the assay of 3′,5′-cyclic adenosine monophosphate (cAMP), cells were plated in 96-well (4 × 10^4 cells/well) clear plates in 100 μl of medium overnight. Cell culture medium was then replaced with 80 µl HBSS buffer containing 20 mM HEPES, phosphodiesterase inhibitor rolipram (10 μM), and 3 units/ml adenosine deaminase (Worthington Biochemical, Lakewood, NJ, USA) for 30 min followed by agonist addition to the mixture, which was then incubated for 20 min. The treatment of YM or FR was 20 min before agonist addition.

A2AAR = target: T3, A2AAR (Homo sapiens, UniProt P29274); assay: cAMP accumulation, HEK293 cells, A2AAR-mediated stimulation (CGS21680); assay type: cell-based
T3 construct: host or cells: HEK293
T3 sequence (P29274 whole entry): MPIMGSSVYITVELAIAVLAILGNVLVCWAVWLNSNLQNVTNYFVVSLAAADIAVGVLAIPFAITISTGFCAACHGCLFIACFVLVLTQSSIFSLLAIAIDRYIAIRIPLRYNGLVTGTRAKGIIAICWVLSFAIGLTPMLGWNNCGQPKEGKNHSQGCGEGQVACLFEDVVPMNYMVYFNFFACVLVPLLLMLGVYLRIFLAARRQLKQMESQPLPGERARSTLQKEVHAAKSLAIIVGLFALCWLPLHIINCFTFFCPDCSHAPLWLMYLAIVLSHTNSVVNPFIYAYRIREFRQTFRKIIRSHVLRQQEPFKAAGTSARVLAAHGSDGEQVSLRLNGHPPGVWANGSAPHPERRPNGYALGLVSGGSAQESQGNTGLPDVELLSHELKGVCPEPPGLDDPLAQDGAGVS
Method: as §1

A2BAR [4] = target: T4, A2BAR (Homo sapiens, UniProt P29275); assay: Intracellular calcium mobilization, T24 bladder cancer cells, native A2BAR (NECA); assay type: cell-based
T4 sequence (P29275 1-332): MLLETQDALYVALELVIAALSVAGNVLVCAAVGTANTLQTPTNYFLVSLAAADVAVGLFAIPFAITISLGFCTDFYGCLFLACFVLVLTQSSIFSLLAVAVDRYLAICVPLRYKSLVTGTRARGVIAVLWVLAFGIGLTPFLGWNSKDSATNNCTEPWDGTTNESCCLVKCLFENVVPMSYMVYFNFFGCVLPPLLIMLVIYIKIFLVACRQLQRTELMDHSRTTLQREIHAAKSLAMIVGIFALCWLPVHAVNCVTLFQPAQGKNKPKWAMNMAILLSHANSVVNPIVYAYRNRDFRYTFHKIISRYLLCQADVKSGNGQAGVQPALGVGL

P2Y1R [5] = target: T1, P2Y1R; assay: Intracellular calcium mobilization, T24 bladder cancer cells, native P2Y1R (MRS2365); assay type: cell-based; conditions: YM 300 nM, FR 300 nM, PTX 200 ng/ml overnight
β2-adrenergic receptor = β2-adrenergic receptor (Homo sapiens, UniProt P07550); assay: Intracellular calcium mobilization, T24 bladder cancer cells, endogenous β2-adrenergic receptor; assay type: cell-based
A2B adenosine receptor = tested on: A2B adenosine receptor; parameters: method as in PMID 26954502; conditions: CHO cells; FR 300 nM; cited from earlier work
A1AR [6] = conditions: CHO cells; FR 300 nM; cited from earlier work
A1AR [7] = conditions: overexpressed in CHO or 1321N1 astrocytoma cells; FR 100 nM; cited from earlier work
[8] = tested on: M2 muscarinic acetylcholine receptor; conditions: overexpressed in CHO or 1321N1 astrocytoma cells; FR 100 nM; cited from earlier work
P2Y12 receptor = tested on: P2Y12 receptor; parameters: method as in PMID 26954502; conditions: overexpressed in CHO or 1321N1 astrocytoma cells; FR 100 nM; cited from earlier work
A1AR [9] = conditions: FR 100 nM; cited from earlier work
A1AR [10] = conditions: FR 100 nM; small but significant; cited from earlier work
[11] = tested on: M3 acetylcholine receptor; parameters: method as in PMID 26954502; conditions: FR at both 100 and 300 nM; cited from earlier work
P2Y1 receptor [12] = tested on: P2Y1 receptor; parameters: method as in PMID 26954502; conditions: FR at both 100 and 300 nM; cited from earlier work
[13] = tested on: M3 acetylcholine receptor; parameters: method as in PMID 26954502; conditions: FR at 100 and 300 nM; cited from earlier work
P2Y1 receptor [14] = tested on: P2Y1 receptor; parameters: method as in PMID 26954502; conditions: FR at 100 and 300 nM; cited from earlier work
A2BAR [15] = target: T4, A2BAR; parameters: method as in PMID 24853985; conditions: T24 cells; cited from earlier work
HMC-1 cells = conditions: cited from earlier work
[16] = tested on: human erythroleukemia cells; conditions: cited from earlier work

C=C1C(=O)N[C@@H](C)C(=O)N(C)[C@@H](C)C(=O)N[C@@H]([C@H](OC(=O)[C@@H](NC(=O)CC)[C@H](O)C(C)C)C(C)C)C(=O)N(C)[C@@H]([C@@H](C)OC)C(=O)O[C@H](C(C)C)[C@H](NC(C)=O)C(=O)O[C@H](Cc2ccccc2)C(=O)N1C [FR, FR900359] (Ac-[X1][dPhLac][NMeDha]A[NMeA][X1](Leu(3R-OH,Nα-propionyl))[NMeT](Me); ester 1-C)
Effect on P2Y1R (MRS2365)-mediated calcium mobilization (P2Y1R [1]; Gq/11 siRNA 250 nM, PTX 200 ng/ml overnight, FR, YM 20 min before agonist): inhibited; also recorded: fully sensitive
IC50 (P2Y1R [1]; agonist MRS2365 1 µM, read-out: IC50 to inhibit P2Y1R-mediated calcium mobilization): 0.0132 ± 0.0032 µM
Effect on A1AR (CCPA)-mediated calcium mobilization (A1AR [2]; HEK293 cells overexpressing A1AR, Gq/11 siRNA 250 nM, PTX 200 ng/ml overnight, FR, YM 20 min before agonist): inhibited; also recorded: YM and FR – fully sensitive (2)
IC50 (A1AR [2]; HEK293 cells, overexpressed A1AR, agonist CCPA 1 µM, read-out: IC50 for inhibition of A1AR-mediated calcium mobilization): 0.00866 ± 0.00323 µM
Effect on A1AR-mediated inhibition of cAMP accumulation (A1AR [3]): did not affect
Effect on A2AAR-mediated stimulation of cAMP accumulation (A2AAR): did not affect
Effect on native A2BAR (NECA)-triggered calcium mobilization (A2BAR [4]; T24 cells, YM 300 nM, FR 300 nM, PTX 200 ng/ml, CTX 500 ng/ml overnight, other inhibitors 20 min before NECA): FR and YM insensitive (4); Gαq/11 siRNA insensitive (4)
Effect on native P2Y1R (MRS2365)-triggered calcium mobilization (P2Y1R [5]): completely inhibited
Effect on isoproterenol-induced calcium mobilization (β2-adrenergic receptor) (β2-adrenergic receptor; T24 cells, FR 300 nM, PMA 1 µM): diminished
Effect on formoterol-induced calcium mobilization (β2-adrenergic receptor) (β2-adrenergic receptor; T24 cells, FR 300 nM, YM 1 µM, PTX 200 ng/ml, CTX 500 ng/ml, PMA 1 µM): diminished
Effect on A2BAR-Gαs-mediated cAMP accumulation (A2B adenosine receptor): no effect
Effect on A1AR-Gαi-mediated inhibition of forskolin-stimulated cAMP accumulation (A1AR [6]): no effect
Effect on Giβγ-mediated calcium mobilization, or IP1 accumulation, upon A1AR activation (A1AR [7]): nearly complete inhibition
Effect on Giβγ-mediated calcium mobilization, or IP1 accumulation, upon M2 receptor activation [8]: nearly complete inhibition
Effect on Giβγ-mediated calcium mobilization, or IP1 accumulation, upon P2Y12R activation (P2Y12 receptor): nearly complete inhibition
Effect on A1AR-mediated Akt1/2/3 phosphorylation (A1AR [9]): no effect
Inhibition of A1AR-mediated ERK1/2 activity (A1AR [10]): < 30%
Effect on ERK1/2 activity triggered by the M3 acetylcholine receptor [11]: only partially inhibited
Effect on ERK1/2 activity triggered by the P2Y1 receptor (P2Y1 receptor [12]): only partially inhibited
Effect on calcium response triggered by the M3 acetylcholine receptor [13]: completely inhibited
Effect on calcium response triggered by the P2Y1 receptor (P2Y1 receptor [14]): completely inhibited

CCCn1c(=O)[nH]c2nc(-c3ccc(S(=O)(=O)N4CCN(c5ccc(Cl)cc5)CC4)cc3)[nH]c2c1=O [PSB603]
Effect on native A2BAR (NECA)-triggered calcium mobilization (A2BAR [4]): completely inhibited
Effect on NECA-induced Ca2+ increase (A2BAR [15]): completely blocked

Cholera toxin [CTX]
Effect on native A2BAR (NECA)-triggered calcium mobilization (A2BAR [4]): CTX sensitive (5), Variable, depending on cell type^b, c
Effect on formoterol-induced calcium mobilization (β2-adrenergic receptor) (β2-adrenergic receptor): effect larger than it was on the NECA-induced Ca^2+ response; also recorded: CTX sensitive (6)
Sensitivity of NECA-induced Ca2+ increase to toxin (HMC-1 cells): ^b NECA-induced Ca^2+ increase in HMC-1 cells was insensitive to CTX and PTX, Feoktistov et al., 1995 [30]
Sensitivity of NECA-induced Ca2+ increase to toxin [16]: ^c NECA-induced Ca^2+ increase in human erythroleukemia cells was sensitive to CTX, Feoktistov et al., 1994 [31]
